The record followed here is publication PMC4788259 (PLoS Neglected Tropical Diseases, 2016).

This experiment has as its system E. multilocularis metacestodes. The experiment is described as follows: PGI assay: phosphoglucose isomerase release from damaged metacestodes. It is filed as cell-based, Echinococcus multilocularis. To be noted: 10 μM, 5 days, single wells, relative to DB1127 (10 μM). The method in brief:
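E. multilocularis metacestode vesicles (strain H95, grown in BALB/c mice, 2–4 mm diameter) were exposed in vitro to compounds for 5 days. Damage was read as phosphoglucose isomerase released into the medium. Initial screening used 10 μM in single wells, with 0.1% DMSO as negative control. EC50 values were derived from this read-out.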
`CC(C)c1ccc(CNCC(O)c2ccccc2)cc1.Cl` (stereo not drawn) [MMV001049]: the “PGI (% of DB1127 at 10 uM)” value stood at 12.43%.
On to `COc1cccc(C(=O)Nc2ccc(-c3nc4ccccc4[nH]3)cc2)c1` [MMV019762], for which the “PGI (% of DB1127 at 10 uM)” value is listed as -25.80%.
Under `O=C(Nc1ccc(CN2CCOCC2)cc1)c1ccc(-c2cc(Cl)ccc2Cl)o1` [MMV020651] stands -24.05%.
Turning to `COc1cc(CNCCc2ccc(Cl)cc2)cc(OC)c1O` [MMV128432], the “PGI (% of DB1127 at 10 uM)” value is listed as -10.12%.
Under `COCCNCC(O)Cn1c2ccc(Cl)cc2c2cc(Cl)ccc21` (stereo not drawn) [MMV019017] stands 20.81%; under `COc1cccc(C2(C)Nc3ccccc3-c3nc4ccccc4n32)c1` (stereo not drawn) [MMV396719], 6.50%.
For the compound `O=C1CC(O)(C(F)(F)C(F)(F)F)Oc2ccccc21` (stereo not drawn) [MMV000972], the “PGI (% of DB1127 at 10 uM)” value was found to be 141.59%.
Under `CSC1=NC(=Nc2c(C)cccc2C)C2(CCC(C(C)(C)C)CC2)N1c1ccc(Cl)cc1` (stereo not drawn) [MMV666596] stands -70.72%.
Under `CCOC(=O)c1c[nH]c2ccc(CC)cc2c1=O` [MMV007116] stands 80.46%; under `c1ccc2c(NCCc3c[nH]c4ccccc34)c3ccccc3nc2c1` [MMV006513], 41.08%; under `CCN(CC)CCn1c(=N)n(CC(O)c2ccc(Cl)c(Cl)c2)c2ccccc21.Cl` (stereo not drawn) [MMV000248], -18.11%.
`Oc1ccc2ccccc2c1CNc1nc2ccccc2[nH]1` [MMV011832]: the “PGI (% of DB1127 at 10 uM)” value is given as 34.82%.
Turning to `OC(Cn1nnc2ccccc21)Cn1c2ccc(Br)cc2c2cc(Br)ccc21` (stereo not drawn) [MMV666025], the “PGI (% of DB1127 at 10 uM)” value is 1.46%.
Then `CCOC(=O)c1c(C)n(-c2ccccc2)c2ccc(OC(=O)c3cc(OC)c(OC)c(OC)c3)cc12` [MMV396664], with -2.70%; and `COc1ccccc1N1C(=N)SC(=Cc2ccc(OCc3ccccc3F)cc2)C1=O` [MMV007199], with -51.03%.
Under `Cc1cc(=O)oc2c1ccc1oc(C(=O)c3ccccc3)c(C)c12` [MMV006753] stands -7.57%; under `Cc1cc(NC(=O)C2c3ccccc3C(=O)N(CC(C)C)C2c2cccs2)no1` (stereo not drawn) [MMV006429], -37.87%; under `COc1ccc(C(=O)Nc2ccc(Cl)cc2C(=O)Nc2ccncc2)cc1` [MMV665799], 5.52%.
Then `COc1cccc(NC(=O)[C@H](C(C)C)n2c(=O)[nH]c3ccccc3c2=O)c1` [MMV665878], with -74.00%; and `COc1ccc(C2N(C)c3ccccc3N2C)cc1` [MMV666075], with 0.50%.
Turning to `CN1C=C(c2ccc3ccccc3n2)C(c2c[nH]c3ccccc23)c2ccccc21` (stereo not drawn) [MMV008160], the “PGI (% of DB1127 at 10 uM)” value is recorded as -2.32%.
Under `CC(C)CCNCC(O)Cn1c2ccccc2c2ccccc21.Cl` (stereo not drawn) [MMV006787] stands 62.04%.
Under `CCOc1ccc(-n2cc(-c3ccccc3)c3c(SCc4cc(C)ccc4C)ncnc32)cc1` [MMV085471] stands -19.26%.
In the case of `COc1ccc(-c2nc(N3CCN(C(=O)C4CCCCC4)CC3)c3c4c(sc3n2)CCCC4)cc1` [MMV396594], the “PGI (% of DB1127 at 10 uM)” value is recorded as -22.30%.
Then `COc1ccc(-c2nonc2NC(=O)c2cccc(Cl)c2)cc1OC` [MMV020660], with -20.61%.
Under `COc1ccc2nc(C)cc(Nc3ccccc3O)c2c1` [MMV274073] stands -1.78%; under `Br.Cc1ccc(C)c(-c2csc(Nc3ccc(C)c(C)c3)n2)c1` [MMV007654], 3.26%; under `COc1cccc(C=Cc2nc(=O)c3ccccc3o2)c1OC` [MMV666693], -16.84%.
Then `Cc1cccc(-n2ncc3c(O)nc(-n4nc(C)cc4NC(=O)c4cc5ccccc5o4)nc32)c1` [MMV403679], with -25.18%; and `c1ccc(/C2=N/c3ccccc3/N=C(/c3ccccc3)c3ccccc32)cc1` [MMV007113], with 13.66%.
`Cc1ccc2nc(C)cc(Nc3cccc(C(F)(F)F)c3)c2c1.Cl` [MMV000326]: the “PGI (% of DB1127 at 10 uM)” value turned out to be 7.52%.
Under `CCCCCCc1cc2cc(-c3nc4ccccc4[nH]3)c(=Nc3ccccc3C)oc2cc1O` [MMV666597] stands -1.88%.
Then `Cc1cc(N(C)C)nc(Nc2ccc(NC(=O)Nc3ccccc3)cc2)n1` [MMV020243], with 0.64%; and `c1ccc(-c2ccc(-c3nc4ccccc4[nH]3)cc2)cc1` [MMV665891], with -89.45%.
Under `Cc1[nH]c(-c2ccc(F)cc2)cc1C(=O)NC1CCN(Cc2ccccc2)CC1` [MMV019738] stands 12.98%; under `CCCCCCc1cc(O)c2c3c(c(=O)oc2c1)CCC(C)C3` (stereo not drawn) [MMV665987], 4.36%.
Consider `O=C(Nc1ccc(-c2nc3cc(NC(=O)c4ccc(Cl)cc4)ccc3[nH]2)cc1)c1ccc(Cl)cc1` [MMV006962], for which the “PGI (% of DB1127 at 10 uM)” value was -9.85%.
Under `O=c1nc(C=Cc2ccc(Br)cc2)oc2ccccc12` [MMV666599] stands 22.37%.
Under `COc1ccc(CCN2C(=O)c3[nH]nc(-c4cc(Cl)c(C)cc4O)c3C2c2ccccc2F)cc1` (stereo not drawn) [MMV396717] stands -12.02%; under `COc1ccc(CN2CCN(Cc3ccccc3)CC2)c(O)c1` [MMV665944], -7.26%; under `CCCCOc1ccc(C(=O)Nc2cc(C)on2)cc1` [MMV007906], -15.33%.
As to `CCCc1c(C)nc2ccccc2c1O` [MMV666081], the “PGI (% of DB1127 at 10 uM)” value is -67.20%.
Then `O=c1c2c([nH]c3ccccc13)CCCC2` [MMV665843], with -19.31%.
Under `Cn1c(=O)c2cc(C(=O)NCCCN3CCCCCC3)sc2c2ccccc21` [MMV019313] stands -53.66%.
Under `CCOc1cc(Cl)c(C(C)NC(=O)c2cccc(OC)c2)cc1OCC` (stereo not drawn) [MMV665803] stands -50.18%.
As to `COc1ccc(OC)c(C2C3=C(CC(C)(C)CC3=O)N(c3ccc(Cl)c(Cl)c3)C3=C2C(=O)CC(C)(C)C3)c1` [MMV007208], the “PGI (% of DB1127 at 10 uM)” value is -12.95%.
Then `Cc1cccc(N2C(=O)C3C(C2=O)C2(c4ccccc4)C(=O)C3(c3ccccc3)C(c3ccc4c(c3)OCO4)=C2c2ccc3c(c2)OCO3)c1` (stereo not drawn) [MMV007228], with 7.95%; and `Cc1ccc(-c2cc3c(nn2)-c2ccccc2C3=O)cc1` [MMV666021], with -22.93%.
Then `CCOC(=O)c1cnc2c(C)cc(C)cc2c1Nc1ccc(OC)c(OC)c1` [MMV008294], with -43.41%; and `COc1ccc(C2c3ccc4ccccc4c3Oc3ncn(CCCN(C)C)c(=N)c32)cc1` (stereo not drawn) [MMV667491], with 39.81%.
Then `N#Cc1nc(Cc2cccc3ccccc23)oc1N1CCN(C(c2ccccc2)c2ccccc2)CC1` [MMV396726], with -6.81%; and `Cc1cc(Nc2ccc3ccccc3c2)n2ncnc2n1` [MMV011099], with -50.58%.
Turning to `Cl.Clc1cc(Br)ccc1-c1ccc(CNCC2CCNCC2)o1` [MMV019918], the “PGI (% of DB1127 at 10 uM)” value is on record as -10.89%.
Under `CCCCNc1nc(NC(C)(C)C)nc(NC(C)(C)C)n1` [MMV665864] stands -36.23%.
